In patent US9964534B2, “Method of making a skin care composition” (The Procter & Gamble Company, priority 2014, dated 2018):

B1: HMGB1: recombinant HIS-tagged HMGB1 available from Sigma; high-mobility group protein B1, SEQ ID No. 1 (protein, listed as Homo sapiens)
chain: MGKGDPKKPRGKMSSYAFFVQTCREEHKKKHPDASVNFSEFSKKCSERWKTMSAKEKGKFEDMAKADKARYEREMKTYIPPKGETKKKFKDPNAPKRPPSAFFLFCSEYRPKIKGEHPGLSIGDVAKKLGEMWNNTAADDKQPYEKKAAKLKEKYEKDIAAYRAKGKPDAAKKGVVKAEKSKKKKEEEEDEEDEEDEEEEEDEEDEDEEEDDDDE
modifications: His tag

Experiments:
HMGB1 = HMGB1 quantitation from keratinocytes (ELISA of supernatant, normalized to total protein); format: cell-based; details: for HMGB1 levels relative to the control: result in words
Description: Make a 210 mL suspension of keratinocytes at 40,000 cells/mL using suitable media to make a cell suspension. Place 2 mL of the cell suspension into the appropriate number of wells of one or more 12-well plates as needed, using the same velocity and insertion angle for each well as cells are pipetted. Incubate the 12-well plates overnight at 37° C. If the cell plating quality is poor (e.g., cells are not attached to plate or seeding density is uneven), discard and start over. Prepare a dosing media by diluting the test agent to the desired concentration (e.g., from 0.0001% to 10%) in a suitable media (e.g., the same media used to make the cell suspension). […] It is not uncommon for skin care actives to be included in skin care compositions at these levels. Optionally, include sufficient solublizer to provide 0.1% solublizer in the test sample. Add 2 mL of dosing media into each well of a 12-well plate and incubate at 4° C. overnight or until test agent is to be added to the test sample. Place prepared dosing media in the 37° C. incubator for at least 30 minutes, or until pH has equalized. When dosing media is warmed and at proper pH, dose the cells. Incubate the dosed cells at 37° C. for 6 hours. Keratinocytes (or other cells) are plated out in 12 well plates as described above with a seeding density of about […] and incubated overnight at 37° C. with 5% CO2. The keratinocytes are dosed with a dosing medium containing the test agent and the plates returned to the incubator for another 20 hours. The supernatant for each is collected and the HMGB1 level analyzed using ELISA (USCN Life Sciences) in accordance with manufacturer's instructions. The cells are lysed with Glo Lysis Buffer (Promega) and the protein levels determined using BCA kits (Pierce) per manufacturer's instructions. The values of HMGB1 determined by ELISA and normalized to total protein levels from the cells.

[1] = tested on: primary human melanocytes; test: Melanocyte dendricity and size measurements (Incucyte ZOOM live cell imaging); format: cell-based; details: melanocytes contacted with HMGB1, over the span of three days
From the text: The ability of a test agent to inhibit dendricity and cell body growth in melanocytes may be determined by contacting a sample of melanocytes with the test agent, measuring the change in dendricity and/or cell body growth and comparing the measured indicator to a control to determine if the test agent is identified as a skin tone agent. In some instances, it is important for the test sample to include a source of HMGB1. For example, an amount of HMGB1 (e.g., recombinant HIS-tagged HMGB1 available from Sigma) may be included in the test sample (e.g., at a final level of 0.1 μg/mL), or the test sample may include another type of cell, which can be stimulated to produce HMGB1. A control may be obtained by measuring the dendricity and/or cell body size of the melanocytes prior to contact with the test agent, measuring the dendricity and/or cell body size of the melanocytes in a control sample and/or from the dendricity and/or cell body size of melanocytes published in scientific literature, if available.
Primary human melanocytes (ATCC) are cultured for 2 passages in T150 flasks. For dendricity experiments, melanocytes are plated into 96 well plates (clear) at a density of about 5000 cells/well. The plates are placed into an Incucyte ZOOM® live cell imaging system (Essen Bioscience, Ann Arbor, Mich.) which resides inside a 37° C., 5% CO2 incubator. […]

| Molecule | HMGB1 levels relative to the control (HMGB1) | HMGB1 (pg)/protein (ug) (HMGB1; test agent 0.001%) [pg/ug protein] | HMGB1 (pg)/protein (ug) (HMGB1; test agent 0.005%) [pg/ug protein] | HMGB1 (pg)/protein (ug) (HMGB1; test agent 0.02%) [pg/ug protein] | cell body size of melanocytes relative to the control [1] | dendricity (dendrite length) of melanocytes relative to the control [1] |
| --- | --- | --- | --- | --- | --- | --- |
| hydroxycinnamic acid [HCA] | significantly reduced | 29 | 6 | 2 | – | – |
| methyl hydroxycinnamic acid [ME-HCA] | significantly reduced | 33 | 28 | 4 | – | – |
| B1 | – | – | – | – | significantly larger | significantly longer |
